The first experiment has as its target T1, CCXCKR2 receptor (Homo sapiens, UniProt P25106).
T1 construct: host or cells: MCF-7 (endogenous) and/or MDA-MB-435S transfected with hRDC1 in pcDNA3.1(+)
The experiment is described as follows: Displacement of 125I-labeled SDF-1 from the CCXCKR2 receptor (radioligand binding, determination of IC50 values).
Conditions: not given
The procedure: The ability of the compounds to displace the labeled chemokine from the CCXCKR2 receptor sites at multiple concentrations was then determined with the screening process.
Compounds that were deemed effective modulators were able to displace at least 50% of the SDF-1 from the CCXCKR2 receptor at concentrations at or below 10 micromolar (μM) and more preferably at concentrations at or below 2 micromolar. At present, especially preferred compounds can displace at least 50% of the SDF-1 from the CCXCKR2 receptor at concentrations at or below 500 nM. Exemplary compounds that met these criteria are reproduced in Table B below. All compounds were prepared as described in the Examples above, or by related methods substituting readily available starting materials.
Reagents and Cells. ^125I-labeled SDF-1 was purchased from Perkin-Elmer Life Sciences, Inc. (Boston, Mass.). The MCF-7 (adenocarcinoma; mammary gland) cell line was obtained from the American Type Culture Collection (Manassas, Va.) or and was cultured in DMEM (Mediatech, Herndon, Va.) supplemented with 10% fetal bovine serum (FBS) (HyClone Logan, Utah) and bovine insulin (0.01 mg/mL) (Sigma, St. Louis, Mo.) at 37° C. in a humidified incubator at a 5% CO2/air mixture. CCXCKR2 transfected MDA-MB-435S were produced as described below. MDA-MB-435S human breast cancer line, was purchased from ATCC, and cultured in DMEM/10% FBS medium. The complete coding sequence of the gene encoding CCXCKR2 (a.k.a.CXCR7, hRDC1), was isolated from MCF-7 cells using μMACs mRNA isolation kit (Miltenyi Biotec, Auburn, Calif.). DNA contamination was removed by DNase digestion via RNeasy columns (Qiagen, Inc., Valencia, Calif.) and cDNA was generated using GeneAmp RNA PCR Core Kit (Applied Biosystems, Foster City, Calif.). PCR of cDNA samples was performed using Taq PCR Master Mix kit (Qiagen, Inc.) and hRDC1 primers harboring 5′ and 3′ Not I sites (hRDC1F 5′-[…]-3′ (SEQ ID NO:1), hRDC1R 5′-[…]-3′ (SEQ ID NO:2)) Not I digested PCR product was ligated into Not I digested pcDNA3.1(+)(Invitrogen, Carlsbad, Calif.) and screened for orientation and sequence confirmed. Plasmid DNA was then isolated from overnight bacterial cultures by Maxiprep (Qiagen, Inc.). Plasmid DNA (10 μg) was added to MDA-MB-435s cells and cells were electroporated (0.22 kV, 960 uF) via Gene Pulser (Biorad laboratories, Hercules, Calif.). 48 hr post-electroporation, cells were transferred to selection medium (1000 ug/ml G418).
Binding Analysis. Target compounds were tested to determine their ability to bind with CCXCKR2 sites on MCF-7 and/or MDA-MB-435S cells. Efficiency-maximized radioligand binding using filtration protocols as described in Dairaghi D J, et al., HHV8-encoded vMIP-I selectively engages chemokine receptor CCR5. Agonist and antagonist profiles of viral chemokines., J. Biol. Chem. 1999 Jul. 30; 274(31): 21569-74 and Gosling J, et al., Cutting edge: identification of a novel chemokine receptor that binds dendritic cell-and T cell-active chemokines including ELC, SLC, and TECK., J. Immunol. 2000 Mar. 15; 164(6):2851-6 was used.
In these assays, MCF-7 and/or MDA-MB-435S cells were interrogated with the target compounds and the ability of these compounds to displace ^125I radiolabeled SDF-1 was assessed using the protocol described in Dairaghi and Gosling. The target compounds were added to the plate to the indicated concentration and were then incubated with cells followed by the addition of radiolabeled chemokine (^125I SDF-1) for 3 hr at 4° C. in the following binding medium (25 mM HEPES, 140 mM NaCl, 1 mM CaCl2, 5 mM MgCl2 and 0.2% bovine serum albumin, adjusted to pH 7.1). All assays were then incubated for 3 hrs at 4° C. with gentle agitation. Following incubation in all binding assays, reactions were aspirated onto PEI-treated GF/B glass filters (Packard) using a cell harvester (Packard) and washed twice (25 mM HEPES, 500 mM NaCl, 1 mM CaCl2, 5 mM MgCl2, adjusted to pH 7.1). […]
Background: Loss of bound radioactivity is the signal in a displacement assay; it reports binding, not function.
T1 sequence (P25106 whole entry): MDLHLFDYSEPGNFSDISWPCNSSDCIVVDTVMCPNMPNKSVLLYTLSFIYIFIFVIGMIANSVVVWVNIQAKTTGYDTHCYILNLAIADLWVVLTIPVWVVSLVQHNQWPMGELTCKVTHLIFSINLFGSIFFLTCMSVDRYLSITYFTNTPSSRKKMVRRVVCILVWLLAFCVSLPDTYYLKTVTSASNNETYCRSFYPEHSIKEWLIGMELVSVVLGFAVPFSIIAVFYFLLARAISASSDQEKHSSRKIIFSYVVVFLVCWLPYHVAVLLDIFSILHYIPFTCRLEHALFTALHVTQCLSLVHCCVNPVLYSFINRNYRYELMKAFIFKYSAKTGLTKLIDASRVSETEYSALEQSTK
For `COc1cc(C(=O)N(Cc2cc3ccccc3cn2)C[C@@H]2CCCN2C[C@@H]2C[C@H]3CC[C@@H](C2)N3)cc2c1OC(C)(C)O2` [Example 63, 7-Methoxy-2,2-dimethyl-benzo[1,3]dioxole-5-carboxylic acid {(S)-1-[(1S,3S,5R)-1-(8-aza-bicyclo[3.2.1]oct-3-yl)methyl]-pyrrolidin-2-ylmethyl}-isoquinolin-3-ylmethyl-amide], the IC50 was < 500 nM.

Staying with this experiment, now noted: MCF-7 and/or MDA-MB-435S cells expressing CCXCKR2; 125I SDF-1; 3 hr at 4° C.; read-out: Activity (ability to displace 125I SDF-1 from CCXCKR2).
For `COc1cc(C(=O)N(Cc2cc3ccccc3cn2)C[C@@H]2CCCN2CC2CNC2)cc2c1OC(C)(C)O2` [Example 39, 7-Methoxy-2,2-dimethyl-benzo[1,3]dioxole-5-carboxylic acid ((S)-1-azetidin-3-ylmethyl-pyrrolidin-2-ylmethyl)-isoquinolin-3-ylmethyl-amide], the IC50 is < 2000 nM.
On the same count and under the same terms, the result for `COc1cc(C(=O)N(Cc2nc(-c3ccccc3)cs2)C[C@@H]2C[C@@H]3CCCC[C@@H]3N2)cc2c1OC(C)(C)O2` [Example 51, 7-Methoxy-2,2-dimethyl-benzo[1,3]dioxole-5-carboxylic acid (octahydro-indol-2-ylmethyl)-(4-phenyl-thiazol-2-ylmethyl)-amide] reads < 500 nM; that for `COc1cc(C(=O)N(Cc2cc3ccccc3s2)C[C@@H]2C[C@@H]3CCCC[C@@H]3N2)cc2c1OC(C)(C)O2` [Example 61, 7-Methoxy-2,2-dimethyl-benzo[1,3]dioxole-5-carboxylic acid benzo[b]thiophen-2-ylmethyl-[(2S,3aS,7aS)-1-(octahydro-indol-2-yl)methyl]-amide], < 500 nM; that for `COc1cc(C(=O)N(Cc2cc3ccccc3cn2)C[C@@H]2CCCN2C2CCC2)cc2c1OC(C)(C)O2` [Example 62, 7-Methoxy-2,2-dimethyl-benzo[1,3]dioxole-5-carboxylic acid ((S)-1-cyclobutyl-pyrrolidin-2-ylmethyl)-isoquinolin-3-ylmethyl-amide], < 500 nM.
Same read-out and setting: the result for `COc1ccc(C(=O)N(Cc2ccc3ccccc3c2)C[C@@H]2CCCN2CC2CCCCC2)cc1OC` [Example 1, N—(S)-(1-Cyclohexylmethyl-pyrrolidine-2-ylmethyl)-3,4-dimethoxy-N-naphthalen-2-ylmethyl-benzamide] reads < 500 nM; that for `COc1ccc(C(=O)N(C[C@@H]2CCCN2C(C)C)c2cccc(-c3ccccc3)c2)cc1OC` [Example 23, N-Biphenyl-3-yl-(S)—N-(1-isopropyl-pyrrolidin-2-ylmethyl)-3,4-dimethoxy-benzamide], < 500 nM.
The same measure, in the same setting: for `COc1ccc(C(=O)N(Cc2cc3ccccc3s2)C[C@@H]2CCCN2CC2CCCCC2)cc1OC` [Example 30, N-Benzo[b]thiophen-2-yl methyl-(S)—N-(1-cyclohexylmethyl-pyrrolidin-2-ylmethyl)-3,4-dimethoxy-benzamide] the value was < 500 nM; for `COc1cc(C(=O)N(Cc2cc3ccccc3nn2)C[C@@H]2CCCN2C2CCC2)cc2c1OC(C)(C)O2` [Example 74, 7-Methoxy-2,2-dimethyl-benzo[1,3]dioxole-5-carboxylic acid cinnolin-3-ylmethyl-((S)-1-cyclobutyl-pyrrolidin-2-ylmethyl)-amide], < 2000 nM; for `COc1ccc(C(=O)N(C[C@@H]2CCCN2CC2CC2)c2cccc(-c3cccnc3)c2)cc1OC` [Example 35, (S)—N-(1-Cyclopropylmethyl-pyrrolidin-2-ylmethyl)-3,4-dimethoxy-N-(3-pyridin-3-yl-phenyl)-benzamide], < 2000 nM.
As to `COc1cc(C(=O)N(Cc2ccc3cccnc3n2)C[C@@H]2C[C@@H]3CCCC[C@@H]3N2)cc2c1OC(C)(C)O2` [Example 42, 7-Methoxy-2,2-dimethyl-benzo[1,3]dioxole-5-carboxylic acid [1,8]naphthyridin-2-ylmethyl-[(2S,3aS,7aS)-1-(octahydro-indol-2-yl)methyl]-amide], the IC50 is < 500 nM.
The same measure, in the same setting: the result for `COc1cc(C(=O)N(Cc2cc3cc(Cl)ccc3o2)C[C@@H]2CCCN2)ccc1OC(F)F` reads < 500 nM; that for `COc1ccc(C(=O)N(Cc2nc3ccccc3s2)C[C@@H]2CCCN2)cc1OC` [Example 25, N-Benzothiazol-2-yl methyl-3,4 dimethoxy-N—(S)-pyrrolidin-2-ylmethyl-benzamide], < 2000 nM.
Still for that read-out and setting: for `COc1cc(C(=O)N(Cc2csc(-c3ccccc3)n2)C[C@@H]2CCCN2)cc2c1OC(C)(C)O2` [Example 55, 7-Methoxy-2,2-dimethyl-benzo [1,3]dioxole-5-carboxylic acid (2-phenyl-thiazol-4-ylmethyl)-pyrrolidin-2-ylmethyl-amide] the value was < 500 nM; for `COc1ccc(C(=O)N(C[C@@H]2CCCN2CC2CCCCC2)c2cccc(-c3ccccc3)c2)cc1OC` [Example 24, N-biphenyl-3-yl-(S)—N-(1-cyclohexylmethyl-pyrrolidin-2-ylmethyl)-3,4-dimethoxy-benzamide], < 500 nM.
The same measure, in the same setting: for `COc1ccc(C(=O)N(Cc2ccc3ccccc3c2)C[C@@H]2CCCN2CC2CC=CCC2)cc1OC` (stereo partly drawn) [Example 1a] the value was < 500 nM.
For `COc1cc(C(=O)N(Cc2nc(-c3ccccc3)cs2)C[C@@H]2CCCN2CC2CNC2)cc2c1OC(C)(C)O2` [Example 52, 7-Methoxy-2,2-dimethyl-benzo[1,3]dioxole-5-carboxylic acid ((S)-1-azetidin-3-ylmethyl-pyrrolidin-2-ylmethyl)-(4-phenyl-thiazol-2-ylmethyl)-amide], the IC50 was < 500 nM.
The same measure, in the same setting: the result for `COc1ccc(C(=O)N(Cc2nc3ccccc3s2)C[C@@H]2CCCN2CCO)cc1OC` [Example 26, N-Benzothiazol-2-yl methyl-(S)—N-[1-(2-hydroxy-ethyl)-pyrrolidin-2-ylmethyl]-3,4-dimethoxy-benzamide] reads < 500 nM; that for `COc1cc(C(=O)N(CCC2CCCN2C)Cc2cccc3ccccc23)cc(OC)c1OC` (stereo not drawn) [Example 6, 3,4,5-Trimethoxy-N[2-(1-methyl-pyrrolidin-2-yl)-ethyl]-N-naphthalen-1-ylmethyl-benzamide], < 2000 nM; that for `COc1cc(C(=O)N(CCC2CCCN2C)CC2=C(Cl)c3cc(F)ccc3OC2)cc(OC)c1OC` (stereo not drawn), < 500 nM.
Still for that read-out and setting: for `COc1cc(C(=O)N(CCCN2CCCCC2C)Cc2ccc3ccccc3c2)cc(OC)c1OC` (stereo not drawn) [Example 18] the value was < 500 nM.
Same read-out and setting: for `COc1cc(C(=O)N(Cc2csc(-c3ccccc3)n2)C[C@@H]2CCCN2C)cc2c1OC(C)(C)O2` [Example 56, 7-Methoxy-2,2-dimethyl-benzo[1,3]dioxole-5-carboxylic acid ((S)-1-methyl-pyrrolidin-2-ylmethyl)-(2-phenyl-thiazol-4-ylmethyl)-amide] the value was < 500 nM; for `COc1ccc(C(=O)N(C[C@@H]2CCCN2)c2cccc(-c3ccccc3)c2)cc1OC` [Example 21], < 2000 nM.
Consider `COc1cc(C(=O)N(Cc2cc3ccccc3s2)C[C@@H]2CCCN2C2CCC2)cc2c1OC(C)(C)O2` [Example 60, 7-Methoxy-2,2-dimethyl-benzo[1,3]dioxole-5-carboxylic acid benzo[b]thiophen-2-ylmethyl-((S)-1-cyclobutyl-pyrrolidin-2-ylmethyl)-amide], for which the IC50 was < 500 nM.

Values taken from patent US7417062B2, “Substituted arylamides” (ChemoCentryx, Inc., priority 2004, dated 2008).
